# Laboratory results: ChEMBL document CHEMBL1132462, “Molecular modeling studies on G-quadruplex complexes of telomerase inhibitors: structure-activity relationships” (J Med Chem, 1999)
# Target: Telomerase reverse transcriptase (Homo sapiens, UniProt O14746)
# Experiment: Inhibitory activity against Telomerase evaluated by TRAP Assay studies.
# Telomerase reverse transcriptase, sequence (O14746 whole entry): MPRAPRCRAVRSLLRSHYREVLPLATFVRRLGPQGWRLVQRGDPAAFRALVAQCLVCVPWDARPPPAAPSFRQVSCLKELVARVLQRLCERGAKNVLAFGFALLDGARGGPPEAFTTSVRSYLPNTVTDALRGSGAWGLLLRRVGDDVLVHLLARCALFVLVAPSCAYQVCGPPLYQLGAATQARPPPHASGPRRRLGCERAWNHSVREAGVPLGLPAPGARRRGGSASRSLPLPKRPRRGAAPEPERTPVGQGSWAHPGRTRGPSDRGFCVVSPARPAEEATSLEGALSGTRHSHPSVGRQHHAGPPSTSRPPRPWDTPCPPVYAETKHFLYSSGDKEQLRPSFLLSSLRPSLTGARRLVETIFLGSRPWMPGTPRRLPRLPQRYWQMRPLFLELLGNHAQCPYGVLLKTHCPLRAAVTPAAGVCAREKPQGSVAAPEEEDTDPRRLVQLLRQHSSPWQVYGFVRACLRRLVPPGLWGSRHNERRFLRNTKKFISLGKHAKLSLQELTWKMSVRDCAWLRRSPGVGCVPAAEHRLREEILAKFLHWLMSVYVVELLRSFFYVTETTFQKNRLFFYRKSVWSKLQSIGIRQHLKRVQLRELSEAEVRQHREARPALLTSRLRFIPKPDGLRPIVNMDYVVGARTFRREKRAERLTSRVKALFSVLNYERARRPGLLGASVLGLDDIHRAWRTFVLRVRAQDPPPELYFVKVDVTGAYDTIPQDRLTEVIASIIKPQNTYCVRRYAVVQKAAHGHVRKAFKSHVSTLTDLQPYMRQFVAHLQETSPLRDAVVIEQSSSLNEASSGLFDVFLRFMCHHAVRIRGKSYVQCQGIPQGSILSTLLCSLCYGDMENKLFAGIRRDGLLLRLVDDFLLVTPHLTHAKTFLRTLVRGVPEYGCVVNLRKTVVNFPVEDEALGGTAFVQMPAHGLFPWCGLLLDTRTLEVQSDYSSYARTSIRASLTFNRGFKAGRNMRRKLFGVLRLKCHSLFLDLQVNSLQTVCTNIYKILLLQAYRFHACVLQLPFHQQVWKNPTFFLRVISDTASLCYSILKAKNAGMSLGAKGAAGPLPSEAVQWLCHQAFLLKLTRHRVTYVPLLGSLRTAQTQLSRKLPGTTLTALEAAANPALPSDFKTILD
row,Compound,IC50 [µM]
1,O=C(CCN1CCCCCC1)Nc1ccc2c(c1)C(=O)c1ccc(NC(=O)CCN3CCCCCC3)cc1C2=O,13
2,O=C(CCN1CCCCCCC1)Nc1ccc2c(c1)C(=O)c1ccc(NC(=O)CCN3CCCCCCC3)cc1C2=O,> 50
3,CC1(C)CC2CC(C)(CN2CCC(=O)Nc2ccc3c(c2)C(=O)c2ccc(NC(=O)CCN4CC5(C)CC4CC(C)(C)C5)cc2C3=O)C1,> 50
